Data taken from patent US20230233483A1, “COMPOUND AND METHOD FOR THE TREATMENT OF CORONAVIRUSES” (Apteeus, priority 2020, published 2023).
“Also recorded” adds a separate entry of the source.

Columns and labels:
hSARS-CoV2 [1] = experiment: Cytopathic effect and cell growth in Vero81 cells infected with hSARS-CoV2; format: cell-based, SARS-CoV-2; details: MOI 0.01, 72 hours
Description: Vero cells [ATCC® CCL-81™, ECACC, Sigma-Aldrich, France, hereafter “Vero81” cells] were cultured in Dulbecco’s modified Eagle medium (DMEM) supplemented with 10% fetal bovine serum (FBS) and GlutaMAX™ in a humidified atmosphere of 5% CO2 at 37° C.
Tested compound: solutions of the clofoctol were prepared in DMSO at concentrations required to achieve the desired concentrations in the experiment. Solutions were dispensed onto the living cells. The maximum concentration of DMSO was 0.15%.
Cell infection: cells were infected after addition of clofoctol at various concentrations or control solvents. The multiple of infection was 0.01. […]
The effect of clofoctol on Vero81 cells infected with hSARS-CoV2 was assessed by adding a range of concentrations of clofoctol, following 1:3 dilutions, prior to infection with hSARS-CoV2 at MOI 0.01 (Multiple Of Infection (MOI) 0.01 means that the amount of virus used is 0.01 per 1 cell) for 72 hours. […]
(§1) The results were obtained by analyzing the percentage of PI-positive nuclei expressed as the percentage of CPE relative to a scale defined by positive (0% infected cells) and negative (100% infected cells) controls. […]
The effect of clofoctol on Vero81 cells infected with hSARS-CoV2 was assessed by adding a range of concentrations of clofoctol, following 1:3 dilutions, prior to infection with hSARS-CoV2 at MOI 0.01 for 72 hours. […]

hSARS-CoV2 [2] = experiment: Cytopathic effect and cell growth in TMPRSS2-transduced Vero81 cells infected with hSARS-CoV2; format: cell-based, SARS-CoV-2; details: MOI 0.01, 72 hours
Description: Vero-81 cells were transduced with a lentivirus expressing TMPRSS2. TMPRSS2 was cloned into pTRIP vector, lentivectors were produced by transfection of HEK293T cells with pTRIP-TMPRSS2, phCMV-VSVG and HIV gag-pol with Turbofect™ (ThermoFischer) according to the manufacturer’s instruction. Supernatants containing lentiviral vectors were used to transduce cells. Then cells were used in experiments 72 h after the transduction.
Tested compound: solutions of the clofoctol were prepared in DMSO at concentrations required to achieve the desired concentrations in the experiment. Solutions were dispensed onto the living cells. The maximum concentration of DMSO was 0.15%. […]
The effect of clofoctol on TMPRSS2-transduced Vero81 cells infected with hSARS-CoV2 was assessed by adding a range of concentrations of clofoctol, following 1:3 dilutions, prior to infection with hSARS-CoV2 at MOI 0.01 for 72 hours. […]
as §1
The results were obtained by analyzing the number of living cells expressed as the percentage of cell growth improvement relative to a scale defined by normal cell growth (not infected controls) and no cell growth (infected controls). […]

hSARS-CoV2 [3] = experiment: Viral genomic replication (RT-qPCR) in Vero81 and TMPRSS2-transduced Vero81 cells; format: cell-based, SARS-CoV-2
Description: Cell culture: Vero81 cells and Vero-81 cells transduced with TMPRSS2 were cultured in Dulbecco’s modified Eagle medium (DMEM) supplemented with 10% fetal bovine serum (FBS) and GlutaMAX™ in a humidified atmosphere of 5% CO2 at 37° C.
Tested compound: solutions of clofoctol were prepared in DMSO at concentrations required to achieve the desired concentrations in the experiment. Solutions were dispensed onto the living cells. The maximum concentration of DMSO was 0.15%.
Cell infection: cells were infected after addition of clofoctol at various concentrations or control solvents. The multiple of infection was 0.25. […]
RNA dosing: after 6 hours of incubation, total cellular RNA was extracted by using the Nucleospin RNA kit (Macherey-Nagel) as recommended by the manufacturer and SARS-CoV-2 genome were measured by quantitative RT-PCR. […] Primers and probe (WHO protocol) targeting the open reading frame for the E gene were used. […]
The effect of clofoctol on Vero81 and TMPRSS2-transduced Vero81 cells infected with hSARS-CoV2 was assessed by adding a range of concentrations of clofoctol, following 1:2,5 dilutions, prior to infection with hSARS-CoV2 at MOI 0.25 for 6 hours. […]
Results were obtained by dosing viral RNA and the viral load was expressed as the ratio of the viral RNA on the total RNA (RNAt) of the sample. […]

SARS-CoV-2 [4] = format: cell-based; details: Vero-81 and Vero-81-TMPRSS2 cells, MOI 0.25, treatment after 1 h infection, 16 h
SARS-CoV-2 [5] = format: cell-based; details: Calu-3 cells, MOI 0.25, 24 h
[6] = Pharmacokinetics in C57BL/6J mice, plasma and lung concentration; format: in vivo; details: i.p. 62.5 mg/kg single dose or twice daily for two days
Description: Clofoctol diluted in 1.75% final Kolliphor® RH40 (07076, Sigma) and 1.4% final ethanol in a sodium chloride solution was used for intraperitoneal injection. Female 8-10 week-old C57BL/6J mice were treated i.p. with a single dose of clofoctol (62.5 mg/kg) and were sacrificed at different time points thereafter (FIG. 9, left panel). In a separate experiment, the mice were treated i.p. twice daily with a dose of clofoctol (62.5 mg/kg) for two days, and the mice were sacrificed 1 h after the last injection (FIG. 9, right panel). The concentration of clofoctol in the plasma and lung of treated mice was measured as follows: plasma samples and lung tissues were collected and treated with absolute ethanol, in a ratio of 1 to 10 and 1 to 50, respectively. Lung tissues were homogenized with a mechanical lysis system (Tissue Lyzer II). Supernatants were obtained by centrifugation before injection in LC-MS/MS. Samples were analysed using UPLC system Acquity I Class (Waters), combined with a triple quadrupole mass spectrometer Xevo TQD (Waters). The column, placed at 40° C., was an Acquity BEH C8 50*2.1 mm, 1.7 µm column (Waters) and the following mobile phases were used: 5 mM ammonium formate pH 3.75 in water, as solvent (A) and 5 mM ammonium formate pH 3.75 in acetonitrile as solvent (B). […]

SARS-CoV-2 [7] = format: in vivo, K18-human ACE2 expressing C57BL/6 mice; details: i.p. 62.5 mg/kg 1 h and 8 h after inoculation and twice daily at day 1; day 2 post-infection
HCoV-229E-Rluc = format: cell-based; details: Huh-7 cells, 7h post-infection
hSARS-CoV-2 = experiment: Infected human bronchial epithelia (MucilAir), secreted virus and viral RNA; format: cell-based, SARS-CoV-2; details: apical administration, MOI 0.2, 72 hours
Description: Human bronchial epithelia (MucilAir™, available from the company Epithelix) were treated through apical administration of clofoctol. The epithelia were first washed with Mucilair® culture medium containing different concentrations of clofoctol prior to infection by hSARS-CoV-2 at MOI 0.2 for 1 hour, still in the presence of clofoctol. Then, the inoculum was removed and epithelia were washed with PBS before addition at the apical pole of 25 µl of Mucilair® culture medium containing different concentrations of clofoctol. After 72 hours of incubation at 37° C., 200 µl of MucilAir™ culture medium was added at the apical pole of the epithelia and harvested, after incubating for 5 minutes. These supernatants were used to quantify the amount of secreted virus as assessed by TCID50. The results are shown in FIG. 15 in which the dotted line represents the limit of detection […]. In addition, total RNAs were extracted by using the Nucleospin RNA kit (Macherey-Nagel) prior to genome quantification by RT-qPCR. The data in both FIGS. 15 and 16 represent the average and standard-deviation of technical triplicates (n=3).

[8] = read-out: Cmax in human lung tissue; patients undergoing pulmonary resection or pneumonectomy, clofoctol administered before or during surgery; cited from earlier work

With `CC(C)(C)CC(C)(C)c1ccc(O)c(Cc2ccc(Cl)cc2Cl)c1` [clofoctol, 2-(2,4-Dichlorobenzyl)-4-(1,1,3,3-tetramethylbutyl)phenol] the “IC95, concentration reducing 95% of the CPE (percentage of PI-positive nuclei)” value (hSARS-CoV2 [1]) was 9.2 µM, the “EC95, concentration at which 95% of maximum response is observed (cell growth improvement)” value (hSARS-CoV2 [1]; estimated) was roughly 21 µM and the “IC95 of the CPE (percentage of PI-positive nuclei)” value (hSARS-CoV2 [2]) was 8.7 µM. For the same compound, the “EC95 (cell growth improvement)” value (hSARS-CoV2 [2]; estimated) was roughly 25 µM, the “IC95 of viral load (ratio of viral RNA on total RNA)” value (hSARS-CoV2 [3]; Vero81 and TMPRSS2-transduced Vero81 cells, MOI 0.25, 6 hours) was 11 µM and the “Genomic replication of SARS-CoV-2 (viral RNA by RT-qPCR, normalized to total RNA)” value (hSARS-CoV2 [3]; Vero-81 and Vero-81-TMPRSS2 cells, MOI 0.25, 6 h, increasing concentrations) was “inhibits the replication of hSARS-CoV2 in infected cells; also recorded: inhibits the genomic replication of SARS-CoV-2”. For the same compound, the “Secreted infectious virus (TCID50) in supernatants” value (SARS-CoV-2 [4]) was “inhibits the secretion of hSARS-CoV-2 by infected cells; also recorded: SARS-CoV-2 load decreases as the concentration of clofoctol increases”, the “SARS-CoV-2 replication (viral RNA by RT-qPCR)” value (SARS-CoV-2 [5]) was “inhibits SARS-CoV-2 replication in Calu-3 cells” and the “Distribution in lungs (concentration in plasma and lung)” value [6] was “distributed in lungs at very significant levels”. For the same compound, the “SARS-CoV-2 infection in mice (lung viral load by titration and RT-qPCR)” value (SARS-CoV-2 [7]) was “significantly reduces SARS-CoV-2 infection in mice”, the “Activity against HCoV-229E (luciferase activity, percentage of control)” value (HCoV-229E-Rluc) was “active against HCoV-229E” and the “Factor of reduction of virus titer in the mucus of human bronchial epithelium (TCID50)” value (hSARS-CoV-2; 30 µM) was “more than 100”. For the same compound, the “Viral RNA quantitation (RT-qPCR) in human bronchial epithelia” value (hSARS-CoV-2; not normalized) was “decrease of viral RNA quantitation” and the Cmax [8] was roughly 250 µM.
